Among the data in article PMC5540879 (Molecular cancer research : MCR, 2017) are Km values, retold here.

The target in the assay is T1, OATP1B3 (Homo sapiens, UniProt Q9NPD5).
T1 sequence (Q9NPD5 1-702): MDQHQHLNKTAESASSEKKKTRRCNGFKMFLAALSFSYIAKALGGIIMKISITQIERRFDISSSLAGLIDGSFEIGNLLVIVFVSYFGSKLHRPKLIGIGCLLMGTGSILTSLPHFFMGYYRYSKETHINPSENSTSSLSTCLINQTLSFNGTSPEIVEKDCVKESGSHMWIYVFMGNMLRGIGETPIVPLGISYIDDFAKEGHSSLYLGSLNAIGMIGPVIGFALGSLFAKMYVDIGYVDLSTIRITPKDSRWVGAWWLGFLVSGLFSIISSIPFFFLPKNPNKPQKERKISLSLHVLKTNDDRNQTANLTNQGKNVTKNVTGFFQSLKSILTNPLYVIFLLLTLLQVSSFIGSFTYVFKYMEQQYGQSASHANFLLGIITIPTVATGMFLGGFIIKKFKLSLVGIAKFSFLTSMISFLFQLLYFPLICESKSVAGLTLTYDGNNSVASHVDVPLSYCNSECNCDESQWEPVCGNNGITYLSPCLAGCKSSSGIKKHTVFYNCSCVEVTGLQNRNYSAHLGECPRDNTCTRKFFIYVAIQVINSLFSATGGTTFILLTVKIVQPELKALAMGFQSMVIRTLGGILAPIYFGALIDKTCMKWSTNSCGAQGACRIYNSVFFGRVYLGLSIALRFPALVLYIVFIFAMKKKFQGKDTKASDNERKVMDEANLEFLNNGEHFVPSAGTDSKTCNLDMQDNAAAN
The assay is described as follows: radiolabeled uptake kinetics. Format: cell-based. The settings on record: oatp1b3-cho cells.
Broadly, the Km is the concentration of substrate that gives half-maximal velocity. For `C[C@]12CCC(=O)C[C@@H]1CC[C@@H]1[C@@H]2CC[C@]2(C)[C@@H](O)CC[C@@H]12` [DHT], the Km was found to be 30.4 ± 9.3 µM. For `C[C@]12CCC(=O)C=C1CC[C@@H]1[C@@H]2CC[C@]2(C)C(=O)CC[C@@H]12` [androstenedione, 4-androstene-3,17-dione], the Km worked out at 31.7 ± 9.5 µM. In the case of `C[C@]12CC[C@H]3[C@@H](CCC4=CC(=O)CC[C@@]43C)[C@@H]1CC[C@@H]2O` [testosterone], the Km came out at 23.2 ± 3.9 µM.
